The supplement of paper PMC10307832

How the values were obtained:
Test in all cases: relative viability (nuclei count vs DMSO), 5 days (fraction); higher = more cells survive
Alpelisib + Dasatinib = compound: Cc1nc(NC(=O)N2CCC[C@H]2C(N)=O)sc1-c1ccnc(C(C)(C)C(F)(F)F)c1 [Alpelisib] + Cc1nc(Nc2ncc(C(=O)Nc3c(C)cccc3Cl)s2)cc(N2CCN(CCO)CC2)n1 [Dasatinib] (partner 0.075 µM)
How it was run: (§1)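 For relative viability, nuclei counts in treated wells were divided by those in vehicle wells. Lung cancer cell lines had been pin-tool dosed in 1536-well plates the day after seeding and cultured for 5 days, then fixed and stained in one step (final 0.05% Triton X-100, 1% formaldehyde, 1 ug/ml Hoechst) and imaged at 4×. Doses were one drug alone or a fixed anchor-drug dose plus five library-drug doses (not always all listed) in √10 steps, and values are duplicate-plate medians.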

Vemurafenib + Alpelisib = compound: CCCS(=O)(=O)Nc1ccc(F)c(C(=O)c2c[nH]c3ncc(-c4ccc(Cl)cc4)cc23)c1F [Vemurafenib] + Cc1nc(NC(=O)N2CCC[C@H]2C(N)=O)sc1-c1ccnc(C(C)(C)C(F)(F)F)c1 [Alpelisib] (partner 2 µM)
How it was run: as §1

OSI-027 + Palbociclib = compound: COc1cccc2cc(-c3nc([C@H]4CC[C@H](C(=O)O)CC4)n4ncnc(N)c34)[nH]c12 [OSI-027] + CC(=O)c1c(C)c2cnc(Nc3ccc(N4CCNCC4)cn3)nc2n(C2CCCC2)c1=O [Palbociclib] (partner 0.5 µM)
How it was run: as §1

Vemurafenib + Phenformin = compound: CCCS(=O)(=O)Nc1ccc(F)c(C(=O)c2c[nH]c3ncc(-c4ccc(Cl)cc4)cc23)c1F [Vemurafenib] + N=C(N)NC(=N)NCCc1ccccc1 [Phenformin] (partner 250 µM)
How it was run: as §1

| Cell Line | relative viability (Alpelisib + Dasatinib; first compound 0.04 µM) | relative viability (Alpelisib + Dasatinib; first compound 0.1265 µM) | relative viability (Alpelisib + Dasatinib; first compound 0.4 µM) | relative viability (Alpelisib + Dasatinib; first compound 1.265 µM) | relative viability (Alpelisib + Dasatinib; first compound 4 µM) | relative viability (Vemurafenib + Alpelisib; first compound 0.03162 µM) | relative viability (Vemurafenib + Alpelisib; first compound 0.1 µM) | relative viability (Vemurafenib + Alpelisib; first compound 0.3162 µM) | relative viability (Vemurafenib + Alpelisib; first compound 1 µM) | relative viability (OSI-027 + Palbociclib; first compound 0.01 µM) | relative viability (OSI-027 + Palbociclib; first compound 0.03162 µM) | relative viability (OSI-027 + Palbociclib; first compound 0.1 µM) | relative viability (OSI-027 + Palbociclib; first compound 0.3162 µM) | relative viability (OSI-027 + Palbociclib; first compound 1 µM) | relative viability (Vemurafenib + Phenformin; first compound 0.03162 µM) | relative viability (Vemurafenib + Phenformin; first compound 0.1 µM) | relative viability (Vemurafenib + Phenformin; first compound 0.3162 µM) | relative viability (Vemurafenib + Phenformin; first compound 1 µM) |
| --- | --- | --- | --- | --- | --- | --- | --- | --- | --- | --- | --- | --- | --- | --- | --- | --- | --- | --- |
| EMC-BAC-2 | 0.31 | 0.291 | 0.28 | 0.228 | 0.208 | 0.704 | 0.657 | 0.704 | 0.698 | 0.488 | 0.499 | 0.487 | 0.398 | 0.348 | 0.509 | 0.461 | 0.26 | 0.452 |
| EPLC-272H | 0.313 | 0.281 | 0.219 | 0.201 | 0.202 | 0.927 | 0.676 | 0.942 | 0.889 | 0.332 | 0.379 | 0.342 | 0.316 | 0.29 | 0.355 | 0.226 | 0.263 | 0.362 |
| H3255 | 0.403 | 0.345 | 0.363 | 0.315 | 0.256 | 0.688 |  | 0.643 | 0.663 | 0.294 | 0.309 | 0.303 | 0.271 | 0.321 | 0.3 |  | 0.342 | 0.332 |
| HARA | 0.291 | 0.281 | 0.215 | 0.174 | 0.155 | 0.801 |  | 0.879 | 0.823 | 0.307 | 0.272 | 0.196 | 0.195 | 0.165 | 0.434 | 0.283 | 0.328 | 0.323 |
| HCC-15 | 0.559 | 0.587 | 0.56 | 0.379 | 0.31 | 0.864 | 0.892 | 0.874 | 0.881 | 0.689 | 0.67 | 0.717 | 0.591 | 0.402 | 0.441 | 0.497 |  | 0.45 |
| HCC-78 | 0.367 | 0.326 | 0.357 | 0.366 | 0.314 | 0.351 | 0.249 | 0.663 | 0.361 | 0.484 | 0.452 | 0.483 | 0.45 | 0.411 | 0.656 | 0.618 | 0.817 | 0.727 |
| HCC-366 | 0.556 | 0.596 | 0.427 | 0.34 | 0.207 | 0.417 | 0.391 |  | 0.379 | 0.465 | 0.348 | 0.412 | 0.309 | 0.1 | 0.61 | 0.565 | 0.247 | 0.593 |
| HCC-827 | 0.378 | 0.427 | 0.296 | 0.234 | 0.233 | 0.959 |  | 1.01 | 0.9 | 0.507 | 0.414 | 0.507 | 0.299 | 0.207 | 0.377 |  | 0.425 | 0.404 |
| HOP-62 | 0.608 | 0.598 | 0.755 | 0.539 | 0.531 | 1.09 | 0.954 | 0.928 | 0.808 | 0.475 | 0.49 | 0.418 | 0.457 | 0.287 | 0.628 | 0.651 | 0.585 | 0.595 |
| LC-2-ad | 0.596 | 0.448 | 0.63 | 0.23 | 0.225 | 0.831 | 0.557 | 0.867 | 0.877 | 0.548 | 0.46 | 0.516 | 0.528 | 0.344 | 0.549 | 0.583 |  | 0.569 |
| LCLC-97TM1 | 0.843 | 0.75 | 0.855 | 0.641 | 0.566 | 0.26 | 0.233 | 0.275 | 0.262 | 0.236 | 0.205 | 0.217 | 0.139 | 0.239 | 0.4 | 0.43 | 0.43 | 0.342 |
| LCLC-103H | 0.45 | 0.442 | 0.468 | 0.418 | 0.359 | 0.901 | 0.883 | 1.02 | 1.04 | 0.484 | 0.538 | 0.513 | 0.498 | 0.493 | 0.312 | 0.342 | 0.262 | 0.307 |
| LK-2 | 0.327 | 0.287 | 0.257 | 0.185 | 0.186 | 1.07 | 1.07 | 1.22 | 0.706 | 0.578 |  | 0.483 | 0.403 | 0.163 | 0.396 | 0.609 | 0.398 | 0.185 |
| LOU-NH91 | 0.478 | 0.482 | 0.482 | 0.452 | 0.34 | 0.713 | 0.487 |  | 0.734 | 0.556 | 0.563 | 0.503 | 0.567 | 0.529 | 0.644 |  |  | 0.731 |
| LU99A | 0.446 | 0.482 | 0.554 | 0.409 | 0.379 | 0.518 | 0.486 | 0.52 | 0.423 | 0.382 | 0.379 | 0.304 | 0.217 | 0.237 | 0.887 | 0.841 | 0.551 | 0.783 |
| LXF-289 | 0.257 | 0.164 | 0.177 | 0.121 | 0.114 | 1.02 | 1.02 | 1.05 | 1.03 | 0.605 | 0.677 | 0.66 | 0.599 | 0.345 | 0.456 | 0.457 | 0.435 | 0.551 |
